Values of other authors as cited in patent US20040136904A1, “Dry powder compositions comprising labelled particles for inhalation” (priority 2001, published 2004).

Settings: in vivo

- time in which 50% is removed from the surface of the lung: ~10 min
Structure (SMILES): [Na+].[O]=[Tc](=[O])(=[O])[O-] [sodium pertechnetate]
